Measurements as given in publication PMC11882074, “Identification of antimicrobial peptides from the Ambystoma mexicanum displaying antibacterial and antitumor activity” (PLOS One, 2025).
Residues, ends and D or L forms follow the SMILES beside them.

Key:
[1] = tested on: methicillin-resistant Staphylococcus aureus; conditions: no reference given, cited from earlier work
Experimental: We evaluated the antimicrobial activity of the synthesized peptides by assessing their MIC against Meticillin-Sensitive Staphylococcus aureus and Methicillin-resistant Staphylococcus aureus (MSSA and MRSA). […] The MIC of vancomycin of 2 µg/mL was used as ... || The skin mucus-derived AMPs were initially characterized, and 22 candidate peptides were identified and ranked based on their likelihood of having antibacterial activities (Table 1, Supl. 2).

MRSA, ATCC# 43300 = type: cell-based, Staphylococcus aureus
Experimental: (§1) MIC assays (MRSA, ATCC# 43300/ MSSA, ATCC# 6538) were performed according to CLSI guidelines. […] Thereafter, samples were treated with peptide concentrations ranging from 10, 5, 2.5, 2, 1.75, 1.5 1.25, 1, 0,85, 0.625 and 0.313 µg/mL. Human antimicrobial peptide LL-37 was utilized as a positive control at a concentration of 256 μg/mL, as it is one of the best-known examples of AMP-based drug development. The assay was performed in triplicates. Efficacy was assessed according to the viable bacterial load determined by dilution plating and counting of Colony Forming Units (CFU). The lowest concentration that inhibited bacterial growth after 24 h of incubation is the MIC. Growth curve were performed using a plate reader (Synergy 2, Biotek).

[2] = tested on: T-47D mammary carcinoma cells; test: Apoptosis assay (Apo-ONE Homogeneous Caspase-3/7) in T-47D cells; type: cell-based, human; conditions: for apoptotic activity compared to the control in T-47D cells: 1 µg/ml peptide; for apoptotic activity compared to the control in T-47D cells / caspase-3/7 activity (apoptotic induction) in T-47D cells: 24 h stimulation, fluorescence (RFU); for caspase-3/7 activity (apoptotic induction) in T-47D cells: 10 µg/ml peptide; for apoptosis in cancerous breast tissue cells (T-47D): all concentrations tested (1µg, 5µg, and 10µg), 24 h, compared with MCF10A, t-test
[3] = tested on: T-47D mammary carcinoma cells; test: Gene expression analysis, Human Breast Cancer RT2 Profiler PCR array; type: cell-based; conditions: 10 µg/mL peptide, 24 h, ΔΔCt vs unstimulated control, fold change above 2
Experimental: Three 75 cm^2 cell culture flasks containing the T-47D and three 75 cm^2 cell culture flasks containing the MCF10A cells were individually stimulated with peptides 1, 12, or 13 at a concentration of 10 µg/mL. An unstimulated cell culture flask was left as a control. Cells were incubated for 24 hours according to standard protocol at 37°C and 5% CO2, in a humidified atmosphere.
After 24 hours, the cells were detached, and RNA was isolated according to the Macherey-Nagel kit. RNA quality was assessed using a NanoDrop 1000 spectrophotometer and gel electrophoresis. To create cDNA the iScript cDNA Synthesis Kit (BioRad) was used and followed according to manufacturer’s instructions. For gene expression analysis, the Human Breast Cancer RT2 Profiler PCR array was used (Qiagen) according to manufacturer’s instructions. On this plate, forward and reverse primers were already included in each well for the respective genes. The qPCR cycling conditions were as follows: 8.5 min at 95°C, […] at 55°C, […] at 72°C and 4°C as holding temperature. Housekeeping gene stability was validated, and results were geometrically averaged. Beta (β)-actin was used for endogenous controls. Expression of carcinogenic markers was quantified relative by the ΔΔCt method and results were normalized to housekeeping genes (Livak and Schmittgen, 2001). The Ct values of the untreated samples were set to zero. The Ct values of the MCF10A samples were subtracted from the Ct values of the T-47D samples. Relative gene expression was calculated from the zero line using Microsoft Excel Version 2016 software (Microsoft Cooperation, Redmond, WA, USA). The resulting higher or lower expressions of the analyzed genes were presented. Gene expression was measured using the BioRad i-Cycler.

MSSA, ATCC# 6538 = test: MIC assay according to CLSI guidelines against MSSA; type: cell-based, Staphylococcus aureus; conditions: 24 h, 37°C; peptides listed in order of lowest to highest MIC; Fig 2A
Experimental: as §1

Molecule	MIC of vancomycin used as threshold for identifying inhibitory effects ([1]; threshold for MRSA and MSSA in Fig 2A) [µg/mL]	MIC values reported against similar MRSA strains ([1]; typical reported range) [µg/mL]	MIC against methicillin-resistant Staphylococcus aureus (MRSA) (MRSA, ATCC# 43300; ATCC# 43300, 24 h) [µg/mL]	apoptotic activity compared to the control in T-47D cells [2]	caspase-3/7 activity (apoptotic induction) in T-47D cells [2]	apoptosis in cancerous breast tissue cells (T-47D) [2]	genes with significant decrease in expression [3]	genes with significant increase in expression [3]	inhibitory effect against MRSA (MIC relative to vancomycin threshold of 2 µg/mL) (MRSA, ATCC# 43300; 24 h, 37°C, peptides listed in order of lowest to highest MIC, Fig 2A)	inhibitory effect against MSSA (MIC relative to vancomycin threshold of 2 µg/mL) (MSSA, ATCC# 6538)
CN[C@H](CC(C)C)C(=O)N[C@H]1C(=O)N[C@@H](CC(N)=O)C(=O)N[C@H]2C(=O)N[C@H]3C(=O)N[C@H](C(=O)N[C@H](C(=O)O)c4cc(O)cc(O)c4-c4cc3ccc4O)[C@H](O)c3ccc(c(Cl)c3)Oc3cc2cc(c3O[C@@H]2O[C@H](CO)[C@@H](O)[C@H](O)[C@H]2O[C@H]2C[C@](C)(N)[C@H](O)[C@H](C)O2)Oc2ccc(cc2Cl)[C@H]1O [vancomycin]	2	0.5 to 2	–	–	–	–	–	–	–	–
CC[C@H](C)[C@H](NC(=O)CNC(=O)CNC(=O)[C@H](CO)NC(=O)[C@H](C)NC(=O)CNC(=O)[C@H](CC(C)C)NC(=O)[C@@H](NC(=O)[C@H](C)NC(=O)[C@@H](N)C(C)C)C(C)C)C(=O)NCC(=O)N[C@@H](CCC(N)=O)C(=O)N1CCC[C@H]1C(=O)N[C@@H](CC(C)C)C(=O)N[C@@H](CO)C(=O)N[C@@H](CC(C)C)C(=O)N[C@@H](CC(C)C)C(=O)N[C@@H](CC(C)C)C(=O)N[C@@H](CCCCN)C(=O)O [Peptide 1] (H-VAVLGASGGIGQPLSLLLK-OH)	–	–	2	–	–	–	–	–	–	–
ILLLcVGEAGDTVQFAEYIQK [Peptide 12, synthetic analog of axolotl skin mucus AMP, rank 12]	–	–	–	increased apoptotic activity compared to the control	highest levels of caspase-3/7 activity	significantly increased apoptosis	CCND2, EGF, GLI1, KRT5, MMP2, and SERPINE1	BRCA1, JUN, NR3C1, RB1, SFN, and XBP1	–	–
FGANALLGVSLAVcKAGAAEK [Peptide 13, synthetic analog of axolotl skin mucus AMP, rank 13]	–	–	–	less distinct	highest levels of caspase-3/7 activity	significantly increased apoptosis	IL6 and MMP2	BRCA1, BRCA2, NR3C1, SERPINE1, and XBP1	inhibitory effect	Inhibitory effects
